This is an account of results in US20260191782A1, “URIDINE TRIACETATE AMORPHOUS FORMULATION AND USES THEREOF” (PHARMA CINQ, LLC, priority 2022, published 2026).

For series [1] the following is noted: cited from earlier work.
Series [2] relates to primary mitochondrial disease. Put plainly: Treatment of primary mitochondrial disease (patient example). It counts as in vivo, human. The note with it: PMD patient, dose increased to 100 mg/kg/dose twice daily. An excerpt: A patient is diagnosed with primary mitochondrial disease by identification of pathogenic mutations known to impair mitochondrial oxidative phosphorylation (by whole exome sequencing and comparison with a database of known pathogenic genetic variants) combined with symptoms consistent with PMD, in this case including recurrent epileptic seizures, developmental delays, proximal renal tubular acidosis requiring bicarbonate supplementation, and exercise intolerance with early onset of fatigue during exertion. […] Within about one week, seizure frequency declines by more than 50%, and daily bicarbonate requirements to compensate for excessive urinary excretion due to proximal tubular acidosis is reduced from 200 milliEquivalents per day to less than 25. With the therapeutic goal of maintaining plasma bicarbonate above 20 mEq/liter. After several additional weeks, endurance during exercise improves, as measured by timed walking distance and standard clinical measures of subjective fatigue.

As to `CC(=O)OC[C@H]1O[C@@H](n2ccc(=O)[nH]c2=O)[C@H](OC(C)=O)[C@@H]1OC(C)=O` [Uridine triacetate, 2′,3′,5′-Tri-O-acetyluridine], in series [1], the solubility in water result is on record as “approximately 10 milligrams per milliliter”. For the same compound, in series [2], the seizure frequency result was “decreases further”.
